Data taken from publication PMC7292393 (PLoS ONE, 2020).
Several values for one entry are separate records, joined by “and”; a condition that tells them apart may be missing. Identical values can stand only once.

Legend:
human SUMO1 [1] = target: T1, human SUMO1 (Homo sapiens, UniProt P63165); assay: Surface plasmon resonance (SPR) primary screen; assay type: binding; conditions: for SPR Screens 1° / %RUmax: 500 μM flavonoid in DMSO; for SPR Screens 1°: cut-off of %RUmax of ~15; for %RUmax: SPR primary screen, (Mean RU/RUmax)*100; for interaction in SPR primary screen: 500 μM, %RUmax above threshold of ~15%;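 on all read-outs here: recombinant human SUMO1 amine-coupled to a sensor chip, blank activated and quenched reference flow cell, flavonoids injected 2 min then 1 min dissociation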
T1 construct: encoding amino acids 1–97 of mature human SUMO1; host or cells: E. coli BL21 Rosetta (DE3)

human SUMO1 [2] = target: T1, human SUMO1; assay: SPR secondary screen / dose-dependent binding; design: key to SPR Screens 2°: ✓: dose-dependent saturation kinetics; ×: no indication of saturation kinetics; conditions: for SPR Screens 2°: five concentrations 31.25-500 μM; for Kd: one-site hyperbola fit, 31.25-500 μM flavonoid, Fig 2A-C, read-out: Kd (SPR secondary screen); for saturation binding in SPR secondary screen: Fig 2A-H
human SUMO1 [3] = target: T1, human SUMO1; assay: Differential scanning fluorimetry (DSF) thermal shift; assay type: binding; design: key to DSF Tm SUMO1 + Flavonoid (class): UF: unfolded protein; ND: melting curve could not be determined; conditions: 2 μM SUMO1, 300 μM flavonoid; for DSF Tm SUMO1 + Flavonoid: mean and SEM, n = 5, SUMO1 + DMSO 59.63 ± 0.03
human SUMO1 [4] = target: T1, human SUMO1; assay: Native-PAGE mobility shift; assay type: binding; conditions: SUMO1 ~40 μM, 300 μM flavonoid
Procedure: Recombinantly purified proteins (Saccharomyces cerevisiae SMT3, Saccharomyces cerevisiae Ulp1, and human SUMO1) were incubated with flavonoids (or DMSO vehicle control) for 30 min to 1 hr at 4°C. Samples were loaded onto 4–20% or 7.5% Mini-PROTEAN TGX Precast Protein Gels (Bio-Rad, Hercules, CA) and were run […] at 95 V for 4 hr 30 min at 4°C using a standard SDS-free loading buffer (pH 8.0) and Tris-glycine running buffer (pH 8.3). Immediately after electrophoresis, the gel was imaged to track migration of bright yellow flavonoid. Following this step, the gel was stained with Bio-Safe Coomassie (Bio-Rad, Hercules, CA) to detect the proteins.

[5] = Precipitation in NMR samples; assay type: physicochemical; conditions: at 400 μM, dissolved in DMSO-d6, NMR sample
Procedure: All NMR experiments for 2D ^1H-^15N HSQC spectra were performed at 17°C on a Varian VNMR 500 MHz spectrometer equipped with a 5mm cryogenic triple resonance probe. Complex points 1024 × 128 and spectral widths of 14 × 38 ppm were used to record all the spectra. […] DMSO-d6 used as a cosolvent caused a slight shift (< ~0.8ppm) of resonance peaks. Therefore resonance assignments for ^15N-labeled SUMO1 residues were compared to the DMSO control treatment and normalized by a common factor. […] The resonance peak assignments were performed using data deposited in the Biological Resonance Data Bank (BMRB) under 25576 as reference. Chemical shift changes were characterized by calculating a weighted chemical shift difference as previously described. […] The chemical shift perturbation data from this work are deposited under BMRB ID 50128.

T1 sequence (P63165 1-97): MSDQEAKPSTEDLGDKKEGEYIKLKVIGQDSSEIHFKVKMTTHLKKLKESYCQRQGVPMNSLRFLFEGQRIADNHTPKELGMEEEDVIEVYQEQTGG

%RUmax (human SUMO1 [1]) | SPR Screens 2° (human SUMO1 [2]) | DSF Tm SUMO1 + Flavonoid (human SUMO1 [3]) | saturation binding in SPR secondary screen (human SUMO1 [2]) | electrophoretic mobility shift of human SUMO1 (human SUMO1 [4]) | Structure (SMILES) | SPR Screens 1° (human SUMO1 [1]) | interaction in SPR primary screen (human SUMO1 [1]) | Kd (human SUMO1 [2]) | effect on DSF thermogram / thermal stability of SUMO1 (human SUMO1 [3]) | precipitation in NMR sample [5] | DSF Tm SUMO1 + Flavonoid (class) (human SUMO1 [3])
 | ✓ |  |  |  | O=C(/C=C/c1ccc(O)cc1)c1ccc(O)cc1O [Isoliquiritigenin] |  | interacted with SUMO1 in the primary screen | ~196 µM |  |  | 
74.2% | × |  | failed to exhibit saturation binding |  | O=C(/C=C/c1ccc(O)c(O)c1)c1ccc(O)cc1O [Butein] | ✓ (%RUmax with binding activity above cut-off) | interacted with SUMO1 in the primary screen |  |  |  | 
48.0% | × | 33.28 ± 0.15 °C | failed to exhibit saturation binding |  | O=c1c(-c2ccc(O)c(O)c2)coc2cc(O)ccc12 [3’,4’,7-Trihydroxy-isoflavone, 3’,4’,7-Trihydroxyisoflavone] | ✓ (%RUmax with binding activity above cut-off) | interacted with SUMO1 in the primary screen |  | significant thermal destabilization or unfolding |  | 
-47.8% |  | 51.89 ± 0.68 °C |  | unable to detect a similar gel shift | O=c1cc(-c2ccc(O)c(O)c2)oc2cc(O)cc(O)c12 [Luteolin] | × (low or no binding activity) |  |  | significant thermal destabilization or unfolding |  | 
12.6% |  | 60.28 ± 0.09 °C |  |  | O=c1c(O)c(-c2ccc(O)cc2)oc2cc(O)cc(O)c12 [Kaempferol, 3,4′,5,7-tetrahydroxyflavone] | × (low or no binding activity) |  |  | little or no effect | Precipitation | 
27.5% | × | 59.24 ± 0.13 °C | failed to exhibit saturation binding |  | O=C1C[C@@H](c2ccc(O)cc2)Oc2cc(O)cc(O)c21 [Naringenin] | ✓ (%RUmax with binding activity above cut-off) | interacted with SUMO1 in the primary screen |  |  |  | 

Continued, molecule first:

Structure (SMILES) | %RUmax (human SUMO1 [1]) | SPR Screens 2° (human SUMO1 [2]) | DSF Tm SUMO1 + Flavonoid (human SUMO1 [3]) | saturation binding in SPR secondary screen (human SUMO1 [2]) | electrophoretic mobility shift of human SUMO1 (human SUMO1 [4]) | SPR Screens 1° (human SUMO1 [1]) | interaction in SPR primary screen (human SUMO1 [1]) | Kd (human SUMO1 [2]) | effect on DSF thermogram / thermal stability of SUMO1 (human SUMO1 [3]) | precipitation in NMR sample [5] | DSF Tm SUMO1 + Flavonoid (class) (human SUMO1 [3])
COc1cc(O)c(Cc2ccccc2O)c(O)c1C(=O)/C=C/c1ccccc1 [C-benzylated chalcone] | -5.3% |  |  |  |  | × (low or no binding activity) |  |  |  |  | 
C[C@@H]1O[C@@H](O[C@H]2[C@H](Oc3cc(O)c4c(c3)O[C@H](c3ccc(O)cc3)CC4=O)O[C@H](CO)[C@@H](O)[C@@H]2O)[C@H](O)[C@H](O)[C@H]1O [Naringin] | 5.4% |  | 58.93 ± 0.02 °C |  |  | × (low or no binding activity) |  |  |  |  | 
Cc1c(O)cc2oc(-c3ccc(O)c(O)c3)c(O)c(=O)c2c1O [Pinoquercetin] | 143.4% | × |  | failed to exhibit saturation binding |  | ✓ (%RUmax with binding activity above cut-off) | interacted with SUMO1 in the primary screen |  |  |  | 
C[C@@H]1O[C@@H](O[C@H]2[C@H](Oc3cc(O)c(C(=O)CCc4ccc(O)cc4)c(O)c3)O[C@H](CO)[C@@H](O)[C@@H]2O)[C@H](O)[C@H](O)[C@H]1O [Naringin dihydrochalcone] | 8.5% |  | 59.94 ± 0.07 °C |  |  | × (low or no binding activity) |  |  |  |  | 
O=c1c(O)c(-c2ccc(O)c(O)c2)oc2cc(O)cc(O)c12 [Quercetin, 3,3',4',5,7-pentahydroxyflavone] | 14.5% | ✓ |  | exhibited binding that approached saturation |  | ✓ (%RUmax with binding activity above cut-off) | interacted with SUMO1 in the primary screen | 41.7 µM and ~42 µM | cause unfolding of human SUMO1 | Precipitation | UF
C[C@@H]1O[C@@H](Oc2c(-c3ccc(O)c(O)c3)oc3cc(O)cc(O)c3c2=O)[C@H](O)[C@H](O)[C@H]1O [Quercitrin] | 14.2% |  | 54.28 ± 0.19 °C |  |  | × (low or no binding activity) |  |  | significant thermal destabilization or unfolding |  | 
O=c1c(O[C@@H]2O[C@H](CO)[C@@H](O)[C@H](O)[C@H]2O)c(-c2ccc(O)c(O)c2)oc2cc(O)cc(O)c12 [Quercetin 3-β-D-glucoside] | 21.3% | × | 56.95 ± 0.28 °C | failed to exhibit saturation binding |  | ✓ (%RUmax with binding activity above cut-off) | interacted with SUMO1 in the primary screen |  |  |  | 
